Assay results: publication PMC10176470, “Engaging a Non-catalytic Cysteine Residue Drives Potent and Selective Inhibition of Caspase-6” (Journal of the American Chemical Society, 2023)

Columns and labels:
human caspases C1–C10 = experiment: Caspase selectivity assays (Eurofins/Panlabs), 10 µM 3a; format: biochemical; details: 3a at 10 μM
[1] = target: proteins of HEK293T cells transiently overexpressing caspase-6 (Homo sapiens, UniProt P62280); experiment: SILAC proteomics / in-gel fluorescence, competition of probe 13-t labeling by 3a; details: Comp; protein RPS11 P62280
[2] = target: proteins of HEK293T cells transiently overexpressing caspase-6 (Homo sapiens, UniProt P11142); experiment: as above; details: Comp; protein HSPA8 P11142
[3] = target: proteins of HEK293T cells transiently overexpressing caspase-6 (Homo sapiens, UniProt Q00839); experiment: as above; details: Comp; protein HNRNPU Q00839
caspase-3 (C3) = target: T1, caspase-3 (C3) (Homo sapiens, UniProt P42574); experiment: Caspase-3 biochemical activity assay with fluorogenic substrate
T1 sequence (P42574 29-175 limits assumed): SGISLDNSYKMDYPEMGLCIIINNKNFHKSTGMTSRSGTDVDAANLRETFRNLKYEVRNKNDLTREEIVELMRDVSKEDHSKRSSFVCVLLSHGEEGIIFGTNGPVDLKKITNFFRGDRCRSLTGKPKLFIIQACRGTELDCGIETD
Description: Error bars represent the standard deviation of thre replicate measurements. […] Activity measured by the cleavage of aminofluorocoumarin-labeled peptides (see the Supporting Information for sequences). C = caspase.

caspase-6 = caspase-6 (Homo sapiens, UniProt P55212); experiment: biochemical
Description: Caspase-6 enzyme assay: The in vitro enzymatic caspase-6 assays utilize synthetic tetrapeptide
substrates labeled with either Rhodamine110 (R110) or 7-Amino-4-(trifluoromethyl)coumarin (AFC)
at the P1 aspartic acid (Asp) residue, as described.3 Briefly, assays were performed in 384-well plates
consisting of caspase-6, VEID-Rh110 or Ac-VEID-AFC and indicated concentration of inhibitor or
DMSO in assay buffer (50 mM HEPES pH 8.0, 100 mM NaCl, 1 mM EDTA, and 500 M ME).
All inhibitors were serially diluted in 100% DMSO prior to dilution in assay buffer and transfer to
assay plate, for a final DMSO concentration of 1%. Compound and protein were preincubated for 15 minutes prior to addition of substrate. The reaction plate was incubated at room temperature for 30
minutes and then read on an Envision (Perkin Elmer) fluorescent plate reader at excitation/emission
wavelengths of 485/535 nm (R110) or 395/495 nm (AFC). Data were processed to generate dose-
response curves and analyzed using a nonlinear curve fit with variable slope in Prism software

[4] = target: proteins of HEK293T cells transiently overexpressing caspase-6 (Homo sapiens, UniProt Q13263); format: cell-based; details: protein TRIM28 (Q13263)
[5] = target: proteins of HEK293T cells transiently overexpressing caspase-6 (Homo sapiens, UniProt Q12906); format: cell-based; details: exp_ref Probe; protein ILF3 (Q12906); analysis C6
[6] = target: proteins of HEK293T cells transiently overexpressing caspase-6 (Homo sapiens, UniProt O00571); format: cell-based; details: exp_ref Probe; protein DDX3X (O00571); analysis C6
[7] = target: proteins of HEK293T cells transiently overexpressing caspase-6 (Homo sapiens, UniProt P35579); format: cell-based; details: Probe; protein MYH9 P35579
[8] = target: proteins of HEK293T cells transiently overexpressing caspase-6 (Homo sapiens, UniProt P15880); format: cell-based; details: protein RPS2 (P15880)
[9] = target: proteins of HEK293T cells transiently overexpressing caspase-6 (Homo sapiens, UniProt P63244); format: cell-based; details: exp_ref Probe; protein GNB2L1 (P63244); analysis C6
[10] = target: proteins of HEK293T cells transiently overexpressing caspase-6 (Homo sapiens, UniProt Q13200); format: cell-based; details: protein PSMD2 (Q13200)
[11] = target: proteins of HEK293T cells transiently overexpressing caspase-6 (Homo sapiens, UniProt P62937); format: cell-based; details: exp_ref Probe; protein PPIA (P62937); analysis C6
[12] = target: proteins of HEK293T cells transiently overexpressing caspase-6 (Homo sapiens, UniProt P17987); format: cell-based; details: protein TCP1 (P17987)
[13] = target: proteins of HEK293T cells transiently overexpressing caspase-6 (Homo sapiens, UniProt Q9UJU6); format: cell-based; details: Probe; protein DBNL Q9UJU6
[14] = target: proteins of HEK293T cells transiently overexpressing caspase-6 (Homo sapiens, UniProt Q16881); format: cell-based; details: exp_ref Probe; protein TXNRD1 (Q16881); analysis C6
[15] = target: proteins of HEK293T cells transiently overexpressing caspase-6 (Homo sapiens, UniProt P00492); format: cell-based; details: Probe; protein HPRT1 P00492
[16] = target: T2, proteins of HEK293T cells transiently overexpressing caspase-6 (Homo sapiens, UniProt P29401); format: cell-based
T2 sequence (P29401 1-623): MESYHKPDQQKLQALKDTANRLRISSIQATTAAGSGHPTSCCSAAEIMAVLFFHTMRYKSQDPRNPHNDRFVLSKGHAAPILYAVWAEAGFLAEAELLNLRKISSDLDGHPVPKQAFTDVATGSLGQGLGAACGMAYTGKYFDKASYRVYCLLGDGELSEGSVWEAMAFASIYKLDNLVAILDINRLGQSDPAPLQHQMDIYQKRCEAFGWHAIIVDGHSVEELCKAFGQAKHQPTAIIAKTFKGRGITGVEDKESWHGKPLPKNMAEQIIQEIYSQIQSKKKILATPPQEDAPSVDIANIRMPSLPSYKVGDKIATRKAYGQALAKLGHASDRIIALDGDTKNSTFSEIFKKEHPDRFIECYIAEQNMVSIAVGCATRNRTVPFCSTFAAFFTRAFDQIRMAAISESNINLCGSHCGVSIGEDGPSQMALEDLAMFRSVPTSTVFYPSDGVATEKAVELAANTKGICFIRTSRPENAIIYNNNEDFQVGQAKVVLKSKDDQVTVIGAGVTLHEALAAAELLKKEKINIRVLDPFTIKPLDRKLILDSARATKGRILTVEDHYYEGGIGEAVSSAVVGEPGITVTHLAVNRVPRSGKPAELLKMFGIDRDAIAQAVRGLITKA

Sequence of proteins of HEK293T cells transiently overexpressing caspase-6 (Homo sapiens, UniProt Q13263) (Q13263 whole entry): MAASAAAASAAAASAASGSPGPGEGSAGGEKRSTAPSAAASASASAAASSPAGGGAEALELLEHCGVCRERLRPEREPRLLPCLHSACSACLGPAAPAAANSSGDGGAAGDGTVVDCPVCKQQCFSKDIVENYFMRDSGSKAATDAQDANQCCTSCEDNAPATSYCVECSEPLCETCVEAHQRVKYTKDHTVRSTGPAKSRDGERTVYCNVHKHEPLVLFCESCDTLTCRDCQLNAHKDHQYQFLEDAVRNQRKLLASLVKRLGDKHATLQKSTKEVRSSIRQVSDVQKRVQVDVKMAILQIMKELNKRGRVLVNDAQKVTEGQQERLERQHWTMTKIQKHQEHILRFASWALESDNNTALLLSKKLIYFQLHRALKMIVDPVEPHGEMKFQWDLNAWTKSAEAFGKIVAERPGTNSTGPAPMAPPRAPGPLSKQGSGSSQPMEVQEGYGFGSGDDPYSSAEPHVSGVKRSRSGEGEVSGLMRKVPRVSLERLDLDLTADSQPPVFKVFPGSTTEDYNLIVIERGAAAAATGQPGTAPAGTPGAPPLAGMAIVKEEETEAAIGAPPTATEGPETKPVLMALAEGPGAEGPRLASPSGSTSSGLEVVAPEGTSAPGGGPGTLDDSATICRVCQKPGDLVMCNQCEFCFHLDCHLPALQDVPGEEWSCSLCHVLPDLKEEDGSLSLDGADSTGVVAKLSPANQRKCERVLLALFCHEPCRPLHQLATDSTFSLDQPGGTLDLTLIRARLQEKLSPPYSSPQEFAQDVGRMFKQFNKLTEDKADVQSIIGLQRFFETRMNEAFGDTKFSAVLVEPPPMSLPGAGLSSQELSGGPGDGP
Sequence of proteins of HEK293T cells transiently overexpressing caspase-6 (Homo sapiens, UniProt Q13200) (Q13200 whole entry): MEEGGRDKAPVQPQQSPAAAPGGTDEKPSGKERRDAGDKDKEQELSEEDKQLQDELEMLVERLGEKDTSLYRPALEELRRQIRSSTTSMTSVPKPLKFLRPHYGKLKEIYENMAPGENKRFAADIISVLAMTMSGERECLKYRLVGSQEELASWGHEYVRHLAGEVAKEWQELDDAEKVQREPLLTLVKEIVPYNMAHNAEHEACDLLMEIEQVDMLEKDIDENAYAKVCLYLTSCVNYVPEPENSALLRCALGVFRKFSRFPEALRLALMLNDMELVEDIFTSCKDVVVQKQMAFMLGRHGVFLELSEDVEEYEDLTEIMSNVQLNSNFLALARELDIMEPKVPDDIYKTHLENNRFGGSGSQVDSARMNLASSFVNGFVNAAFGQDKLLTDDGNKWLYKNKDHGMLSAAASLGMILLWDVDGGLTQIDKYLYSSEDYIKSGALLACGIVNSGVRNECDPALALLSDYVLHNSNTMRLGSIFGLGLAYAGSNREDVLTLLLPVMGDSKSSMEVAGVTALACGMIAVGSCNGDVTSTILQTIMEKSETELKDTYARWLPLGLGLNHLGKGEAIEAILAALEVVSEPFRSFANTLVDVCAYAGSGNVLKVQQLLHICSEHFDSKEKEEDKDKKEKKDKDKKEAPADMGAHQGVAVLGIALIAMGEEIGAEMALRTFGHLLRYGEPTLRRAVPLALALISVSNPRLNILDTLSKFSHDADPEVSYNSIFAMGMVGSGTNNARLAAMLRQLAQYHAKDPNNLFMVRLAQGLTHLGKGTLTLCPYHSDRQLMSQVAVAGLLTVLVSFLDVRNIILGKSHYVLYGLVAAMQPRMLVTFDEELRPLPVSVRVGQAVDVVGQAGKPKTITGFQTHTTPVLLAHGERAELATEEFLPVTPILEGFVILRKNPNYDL
Sequence of proteins of HEK293T cells transiently overexpressing caspase-6 (Homo sapiens, UniProt P17987) (P17987 whole entry): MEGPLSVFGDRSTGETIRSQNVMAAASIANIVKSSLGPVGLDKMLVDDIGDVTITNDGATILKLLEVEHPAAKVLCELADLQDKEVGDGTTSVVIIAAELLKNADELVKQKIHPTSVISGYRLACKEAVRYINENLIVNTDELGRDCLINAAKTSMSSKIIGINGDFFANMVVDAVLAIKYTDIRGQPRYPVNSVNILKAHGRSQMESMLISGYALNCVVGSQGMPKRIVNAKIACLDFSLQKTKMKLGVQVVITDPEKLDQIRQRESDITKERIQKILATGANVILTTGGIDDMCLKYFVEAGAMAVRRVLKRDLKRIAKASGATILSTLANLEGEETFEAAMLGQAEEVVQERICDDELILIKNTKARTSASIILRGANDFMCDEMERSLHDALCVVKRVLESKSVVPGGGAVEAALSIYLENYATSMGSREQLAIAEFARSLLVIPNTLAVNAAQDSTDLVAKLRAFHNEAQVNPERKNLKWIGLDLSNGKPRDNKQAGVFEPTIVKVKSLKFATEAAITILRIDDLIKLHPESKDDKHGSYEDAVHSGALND
Sequence of proteins of HEK293T cells transiently overexpressing caspase-6 (Homo sapiens, UniProt P35579) (P35579 whole entry): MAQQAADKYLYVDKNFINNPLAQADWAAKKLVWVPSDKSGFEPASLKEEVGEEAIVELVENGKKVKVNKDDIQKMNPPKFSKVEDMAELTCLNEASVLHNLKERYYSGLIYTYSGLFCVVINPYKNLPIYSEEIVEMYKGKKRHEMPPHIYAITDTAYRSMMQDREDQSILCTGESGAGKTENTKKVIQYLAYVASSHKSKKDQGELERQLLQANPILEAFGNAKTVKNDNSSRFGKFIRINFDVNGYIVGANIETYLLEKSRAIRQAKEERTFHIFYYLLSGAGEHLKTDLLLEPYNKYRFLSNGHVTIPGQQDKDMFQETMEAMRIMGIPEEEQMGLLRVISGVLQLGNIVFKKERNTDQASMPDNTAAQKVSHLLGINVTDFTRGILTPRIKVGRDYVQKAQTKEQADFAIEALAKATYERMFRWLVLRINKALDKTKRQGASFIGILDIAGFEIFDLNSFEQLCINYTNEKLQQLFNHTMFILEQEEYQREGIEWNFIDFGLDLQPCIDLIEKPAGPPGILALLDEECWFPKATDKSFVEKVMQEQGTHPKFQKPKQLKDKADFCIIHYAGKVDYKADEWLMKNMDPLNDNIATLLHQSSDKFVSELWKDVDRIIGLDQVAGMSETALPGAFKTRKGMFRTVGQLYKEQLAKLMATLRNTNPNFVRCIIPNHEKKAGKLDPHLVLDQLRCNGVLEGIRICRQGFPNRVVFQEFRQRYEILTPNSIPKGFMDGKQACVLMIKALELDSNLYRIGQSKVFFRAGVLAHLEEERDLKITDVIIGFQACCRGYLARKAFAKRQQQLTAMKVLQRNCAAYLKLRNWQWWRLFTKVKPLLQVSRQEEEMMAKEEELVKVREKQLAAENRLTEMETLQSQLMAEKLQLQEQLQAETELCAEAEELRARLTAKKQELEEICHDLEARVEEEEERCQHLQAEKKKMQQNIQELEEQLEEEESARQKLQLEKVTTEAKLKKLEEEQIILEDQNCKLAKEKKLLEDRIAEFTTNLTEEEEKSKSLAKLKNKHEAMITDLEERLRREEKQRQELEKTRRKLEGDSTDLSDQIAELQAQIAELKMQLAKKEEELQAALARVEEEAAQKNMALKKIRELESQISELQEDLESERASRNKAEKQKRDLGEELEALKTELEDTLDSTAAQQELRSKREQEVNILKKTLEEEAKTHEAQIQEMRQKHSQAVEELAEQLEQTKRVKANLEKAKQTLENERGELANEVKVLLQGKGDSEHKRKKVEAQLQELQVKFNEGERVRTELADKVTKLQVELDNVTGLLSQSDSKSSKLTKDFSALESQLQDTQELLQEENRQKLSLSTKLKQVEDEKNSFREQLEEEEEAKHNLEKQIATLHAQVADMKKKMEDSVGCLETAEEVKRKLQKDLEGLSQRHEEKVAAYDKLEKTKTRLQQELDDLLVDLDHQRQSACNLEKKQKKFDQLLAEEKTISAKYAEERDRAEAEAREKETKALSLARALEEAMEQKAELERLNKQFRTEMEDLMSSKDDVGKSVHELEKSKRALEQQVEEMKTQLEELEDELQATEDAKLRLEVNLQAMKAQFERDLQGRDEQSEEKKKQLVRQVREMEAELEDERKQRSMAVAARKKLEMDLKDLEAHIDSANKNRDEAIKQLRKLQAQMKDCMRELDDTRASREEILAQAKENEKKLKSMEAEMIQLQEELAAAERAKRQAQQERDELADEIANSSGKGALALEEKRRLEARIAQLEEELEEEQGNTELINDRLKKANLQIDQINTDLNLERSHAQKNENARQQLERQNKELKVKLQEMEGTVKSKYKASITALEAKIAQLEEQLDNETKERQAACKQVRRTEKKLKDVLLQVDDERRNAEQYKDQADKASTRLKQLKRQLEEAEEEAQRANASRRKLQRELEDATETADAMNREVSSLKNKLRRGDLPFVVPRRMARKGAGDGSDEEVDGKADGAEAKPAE
Sequence of proteins of HEK293T cells transiently overexpressing caspase-6 (Homo sapiens, UniProt P11142) (P11142 whole entry): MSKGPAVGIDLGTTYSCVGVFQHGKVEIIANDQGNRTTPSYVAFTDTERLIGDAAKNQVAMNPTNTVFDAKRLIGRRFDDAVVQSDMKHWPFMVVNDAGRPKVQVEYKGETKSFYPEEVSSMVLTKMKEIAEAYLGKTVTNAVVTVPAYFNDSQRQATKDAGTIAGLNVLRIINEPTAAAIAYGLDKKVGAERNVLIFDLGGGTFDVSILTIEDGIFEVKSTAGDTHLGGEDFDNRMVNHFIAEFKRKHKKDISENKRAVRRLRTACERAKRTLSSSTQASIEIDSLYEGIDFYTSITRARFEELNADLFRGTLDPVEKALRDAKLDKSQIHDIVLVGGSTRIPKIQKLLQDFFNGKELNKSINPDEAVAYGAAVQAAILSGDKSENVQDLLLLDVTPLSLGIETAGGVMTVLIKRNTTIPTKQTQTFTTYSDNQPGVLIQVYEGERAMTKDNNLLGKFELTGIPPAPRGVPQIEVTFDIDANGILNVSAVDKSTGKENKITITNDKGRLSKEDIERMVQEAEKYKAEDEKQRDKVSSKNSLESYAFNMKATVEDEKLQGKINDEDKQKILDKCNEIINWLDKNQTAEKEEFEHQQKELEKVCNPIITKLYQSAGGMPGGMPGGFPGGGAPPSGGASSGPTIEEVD
Sequence of proteins of HEK293T cells transiently overexpressing caspase-6 (Homo sapiens, UniProt P62937) (P62937 whole entry): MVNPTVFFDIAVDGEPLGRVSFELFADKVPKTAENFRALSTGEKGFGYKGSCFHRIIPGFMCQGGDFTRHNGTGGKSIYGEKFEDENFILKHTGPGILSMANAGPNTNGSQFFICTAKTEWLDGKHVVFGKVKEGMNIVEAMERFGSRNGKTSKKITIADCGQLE

With `C=CS(=O)(=O)N1C[C@H](C(=O)Nc2ccc(OC(F)(F)F)cc2)C[C@@H](c2ccccc2)C1` [3a] the “effect on the other caspase isoforms (in words)” value (human caspases C1–C10) was “little, if any, effect”, the enrich.exp.med [1] was 0.7926 and the enrich.exp.med [2] was 0.6036. For the same compound, the enrich.exp.med [3] was 0.6324, the “activity against C3 (in words)” value (caspase-3 (C3)) was “lack of activity” and the IC50 (caspase-3 (C3); read-out: Casp-3 IC50) was > 500 µM.
Work on `C#CCOc1ccc([C@@H]2C[C@@H](C(=O)Nc3ccc(OC(F)(F)F)cc3)CN(S(=O)(=O)C=C)C2)cc1` (relative stereo) [13-t] yielded an IC50 (caspase-6) of 0.048 ± 0.002 µM, an enrich.exp.med ([4]; exp_ref Probe, analysis C6) of 0.8833 and an enrich.exp.med.lin [4] of 1.845. The enrich.exp.med.log2 [4] was 0.8833, the enrich.exp.med [5] was 0.1427 and the enrich.exp.med [6] was 0.1246. For the same compound, the enrich.exp.med [7] was -0.6242, the enrich.exp.med ([8]; exp_ref Probe, analysis C6) was 0.988 and the enrich.exp.med.lin [8] was 1.9835. The enrich.exp.med.log2 [8] was 0.988, the enrich.exp.med [9] was 0.2005 and the enrich.exp.med ([10]; exp_ref Probe, analysis C6) was 1.027. The enrich.exp.med.lin [10] was 2.037, the enrich.exp.med.log2 [10] was 1.027 and the enrich.exp.med [11] was -0.06908. For the same compound, the enrich.exp.med ([12]; exp_ref Probe, analysis C6) was 0.8619, the enrich.exp.med.lin [12] was 1.8174 and the enrich.exp.med.log2 [12] was 0.8619. It also gave an enrich.exp.med [13] of -0.5155, an enrich.exp.med [14] of -0.009915 and an enrich.exp.med [15] of -1.112. It also gave an enrich.exp.med ([16]; Probe, protein TKT P29401) of -0.5472, an enrich.exp.med.lin ([16]; protein TKT (P29401)) of 0.6843 and an enrich.exp.med.log2 ([16]; protein TKT (P29401)) of -0.5472.
